Results on four compounds are retold here after publication PMC9017349, “Spiropyrimidinetriones: a Class of DNA Gyrase Inhibitors with Activity against Mycobacterium tuberculosis and without Cross-Resistance to Fluoroquinolones” (Antimicrobial Agents and Chemotherapy, 2022).

≈ marks a conversion by molar mass, not a printed value. Where “and” joins values, the source holds several entries; their conditions need not be identical. Equal entries are not always repeated. Where two headings read alike, the source gives them in different places.

The test system of data set [1] is M. tuberculosis. Particulars: 200 mg/kg, 14 days of dosing, published study; cited from earlier work.
Data set [2] has as its system M. tuberculosis H37Rv. Kind of data set: microbe, parasite or virus in culture. Format: cell-based. Particulars: Mycobacterium tuberculosis, 168 h; for MIC: H37Rv, 7 days, Middlebrook 7H9 with OADC and glycerol, read-out: MIC (dose-response); for MBC: H37RV, CARA, transfer to charcoal agar, additional 7 days.
Data set [3] deals with M. tuberculosis H37Rv. The data set is described as follows: microbe, parasite or virus in culture. The class given is cell-based. Particulars: Mycobacterium tuberculosis, read-out: MIC90, H37Rv.
In data set [4] the test system is recA promoter reporter in M. tuberculosis H37Rv. Format: cell-based, Mycobacterium tuberculosis.
Data set [5] relates to H37Rv (RecA). Format: cell-based, Mycobacterium tuberculosis.
In data set [6] the test system is Mtb. The class given is in vivo. Particulars: 100 mg/kg, day 21; limit 1.57 log10 CFU.
The test system of data set [7] is M. tuberculosis H37Rv. The data set is described as follows: MIC against M. tuberculosis H37Rv in 7H9 medium with various supplements. Format: cell-based, Mycobacterium tuberculosis. Particulars: for MIC: Mycobacterium tuberculosis.
Data set [8] deals with M. tuberculosis ΔcydA. Format: cell-based.
Data set [9] can be described thus: in vitro. Particulars: mouse, plasma.
Data set [10] relates to M. tuberculosis Erdman. Kind of data set: microbe, parasite or virus in culture. The class given is cell-based. Particulars: Mycobacterium tuberculosis, read-out: MIC against the Erdman strain with 4% human serum albumin, 7H9 medium-ADC-glycerol plus 4% human serum albumin.
Data set [11] can be described thus: in vivo. Particulars: male, mouse.
The conditions of data set [12]: for Average Conc. Found in plasma: infected BALB/c mice.
Data set [13] has as its system iniB promoter reporter in M. tuberculosis H37Rv. The class given is cell-based, Mycobacterium tuberculosis.
Data set [14] concerns the target M. tuberculosis DNA gyrase (Mycobacterium tuberculosis, UniProt P9WG45+P9WG47). Kind of data set: biochemical. Particulars: read-out: IC50, DNA gyrase supercoiling.
For data set [15], the system named is N. gonorrhoeae. Particulars: cited from earlier work.
Data set [16] can be described thus: in vivo. Particulars: BALB/c, mouse, 300 mg/kg.
Data set [17] has as its system replicating M. tuberculosis H37Rv. The class given is cell-based. Particulars: 1× MIC.
For data set [18], the system named is S. aureus. Particulars: cited from earlier work.
The test system of data set [19] is M. tuberculosis expressing DsRed in murine RAW 264.7 cells. Kind of data set: microbe, parasite or virus in culture. Format: cell-based. Particulars: for IC50: RAW 264.7, 72 h exposure, read-out: IC50, intracellular M. tuberculosis in murine macrophages.
A short description of data set [20]: in vitro. Particulars: human, plasma. An excerpt: (§1) Aiming to identify a compound to progress to in vivo efficacy studies, compounds were profiled for physicochemical properties, PK, and safety.
The test system of data set [21] is M. tuberculosis Erdman pFCA-LuxAB (Erdman Lux). Particulars: BALB/c mice, 300 mg/kg p.o. daily, 12 days.
A short description of data set [22]: physchem. Particulars: pH 6.5.
Description: as §1

Data set [23] has as its system murine RAW 264.7 cells. The class given is cell-based. Particulars: highest concentration tested.
The subject of data set [24] is mouse lymphoma assay (micronucleation aberrations). Particulars: highest concentration tested; cited from earlier work.
The test system of data set [25] is S. pneumoniae. Particulars: cited from earlier work.
The subject of data set [26] is N. gonorrhoeae. The class given is cell-based.
Where [27] appears, read: H37RV, read-out: MIC, ADC/GLU/TW.
Where [28] appears, read: H37RV, read-out: MIC, DPPC/CAS/TX.
The mark [29] stands for this setting: H37RV, read-out: MIC, DPPC/Chol/BSA/TX.
Setting [30] is: H37RV, read-out: MIC, GLU/BSA/TX.
Where [31] appears, read: H37RV, read-out: MIC, GLU/CAS/TX.

M. tuberculosis DNA gyrase, sequence (P9WG45 whole entry): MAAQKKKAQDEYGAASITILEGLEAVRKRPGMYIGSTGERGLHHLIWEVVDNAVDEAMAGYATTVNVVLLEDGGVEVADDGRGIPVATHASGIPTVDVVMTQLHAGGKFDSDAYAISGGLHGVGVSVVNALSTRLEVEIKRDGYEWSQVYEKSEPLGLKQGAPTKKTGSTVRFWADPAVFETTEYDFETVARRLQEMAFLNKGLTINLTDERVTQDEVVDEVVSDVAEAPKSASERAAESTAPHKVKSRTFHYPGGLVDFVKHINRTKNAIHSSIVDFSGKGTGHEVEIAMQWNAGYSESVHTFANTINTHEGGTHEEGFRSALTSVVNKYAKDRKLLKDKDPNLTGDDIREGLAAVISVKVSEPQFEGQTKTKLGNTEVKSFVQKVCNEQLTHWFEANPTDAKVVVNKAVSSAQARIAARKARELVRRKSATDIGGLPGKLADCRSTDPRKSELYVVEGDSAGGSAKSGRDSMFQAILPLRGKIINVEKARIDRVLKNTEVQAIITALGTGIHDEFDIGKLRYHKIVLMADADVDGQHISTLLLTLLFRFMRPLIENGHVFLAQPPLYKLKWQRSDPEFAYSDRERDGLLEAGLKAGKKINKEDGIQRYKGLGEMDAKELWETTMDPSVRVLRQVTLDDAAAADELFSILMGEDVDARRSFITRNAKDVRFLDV
M. tuberculosis DNA gyrase, sequence (P9WG47 whole entry): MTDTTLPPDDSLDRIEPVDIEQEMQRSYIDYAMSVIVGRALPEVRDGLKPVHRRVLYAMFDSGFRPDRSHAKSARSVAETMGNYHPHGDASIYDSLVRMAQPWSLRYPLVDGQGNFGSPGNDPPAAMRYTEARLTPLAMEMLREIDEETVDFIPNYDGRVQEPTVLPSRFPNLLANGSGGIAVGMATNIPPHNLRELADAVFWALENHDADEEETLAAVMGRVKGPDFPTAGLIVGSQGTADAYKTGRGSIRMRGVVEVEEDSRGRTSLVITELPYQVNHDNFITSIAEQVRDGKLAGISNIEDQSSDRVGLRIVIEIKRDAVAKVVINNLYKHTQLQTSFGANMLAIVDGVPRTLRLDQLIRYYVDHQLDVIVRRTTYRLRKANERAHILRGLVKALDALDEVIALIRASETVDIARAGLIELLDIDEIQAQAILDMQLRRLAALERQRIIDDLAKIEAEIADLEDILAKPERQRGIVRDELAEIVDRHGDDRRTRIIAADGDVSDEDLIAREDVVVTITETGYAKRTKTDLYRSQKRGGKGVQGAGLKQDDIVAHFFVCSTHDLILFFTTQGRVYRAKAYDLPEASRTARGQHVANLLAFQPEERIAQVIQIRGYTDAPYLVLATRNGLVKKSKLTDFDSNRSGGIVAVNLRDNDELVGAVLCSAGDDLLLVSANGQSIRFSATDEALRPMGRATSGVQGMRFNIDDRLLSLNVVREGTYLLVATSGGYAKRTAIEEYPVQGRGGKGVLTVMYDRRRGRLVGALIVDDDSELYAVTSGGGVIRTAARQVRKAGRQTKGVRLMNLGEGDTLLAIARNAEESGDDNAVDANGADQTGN

Take `COc1c(N2C[C@@H]3CCCN[C@@H]3C2)c(F)cc2c(=O)c(C(=O)O)cn(C3CC3)c12` [Moxifloxacin, moxifloxacin]: in data set [1], the CFU reduction is 3.3 log10 CFU. The MIC was found to be 0.38 µM (≈ 0.153 µg/mL) in [2]; 0.2 µM (≈ 0.0803 µg/mL) in [7] (H37Rv, 7H9 medium with DPPC/Casitone/tyloxapol, read-out: MIC, DPPC/CAS/TX); 0.17 µM (≈ 0.0682 µg/mL) in data set [7] (H37Rv, 7H9 medium with albumin-dextrose catalase/glucose/Tween, read-out: MIC, ADC/GLU/TW); 0.3 µM (≈ 0.12 µg/mL) in [7] (H37Rv, 7H9 medium with glucose/BSA/tyloxapol, read-out: MIC, GLU/BSA/TX). Also, the MBC in data set [2] is 0.78 µM (≈ 0.313 µg/mL). The MIC90 in data set [3] was 0.24 µM (≈ 0.0963 µg/mL). The “PrecA-LUX signal higher than for 22” value in data set [4] (at 0.5× MIC) is roughly 6 fold. In addition, the “PrecA-LUX MIC” value in data set [5] was ~ 0.19 μM. Further, the “n, number of mice showing viable bacteria above the lower limit of detection/total number of animals tested” value in data set [6] is 3/6.

For the compound `CO[C@H]1/C=C/O[C@@]2(C)Oc3c(C)c(O)c4c(O)c(c(/C=N/N5CCN(C)CC5)c(O)c4c3C2=O)NC(=O)/C(C)=C\C=C\[C@H](C)[C@H](O)[C@@H](C)[C@@H](O)[C@@H](C)[C@H](OC(C)=O)[C@@H]1C` [Rif, rifampicin], the “MIC90, ΔcydA” value in data set [8] was 0.0046 µM (≈ 0.00379 µg/mL). Besides, the MIC90 in data set [3] was 0.002 µM (≈ 0.00165 µg/mL).

With `Cc1nnc(-c2noc3c(F)c4c(cc23)CC2(C(=O)NC(=O)NC2=O)[C@H]2[C@H](C)O[C@H](C)CN42)o1` [Compound 22], the fraction unbound (commonly free concentration divided by total concentration) in [9] stood at 0.068; in data set [20], 0.15. The MIC in [10] was determined as 16 µM; in data set [2], 7.26 µM (≈ 3.42 µg/mL); in [7] (setting [27]), 1.7 µM (≈ 0.8 µg/mL); in data set [7] (setting [28]), 5.2 µM (≈ 2.45 µg/mL); in data set [7] (setting [29]), 2.9 µM (≈ 1.36 µg/mL); in [7] (setting [30]), 3 µM (≈ 1.41 µg/mL). In addition, in data set [7] (setting [31]), the MIC amounted to 2.6 µM (≈ 1.22 µg/mL). Moreover, the area under the curve AUC(0-inf) (usually total exposure, with the tail of the curve extrapolated) worked out at 2.37 µg·h/mL in [11] (iv, 2 mg/kg); 24.6 µg·h/mL in [11] (po, 20 mg/kg); 343 µg·h/mL in data set [11] (po, 100 mg/kg); 1270 µg·h/mL in data set [11] (po, 300 mg/kg); 1440 µg·h/mL in data set [11] (po, 500 mg/kg). For the same compound, in data set [11] (iv, 2 mg/kg), the Vd (commonly a proportionality between amount in the body and measured concentration, not a real space) came to 5.1 L/kg. In data set [11] (iv, 2 mg/kg), the clearance (in general, the volume of plasma or blood freed of the substance per unit of time) was found to be 14.3 mL/min/kg. In addition, the half-life (commonly how long it takes for the measured level to halve) in data set [11] (iv, 2 mg/kg) is 3.7 h. In addition, the Cmax – broadly, the peak of the concentration-time curve – in data set [11] (po, 20 mg/kg) was 9.5 µg/mL; in data set [11] (po, 100 mg/kg) it was 47 µg/mL; in data set [11] (po, 300 mg/kg), 133 µg/mL; in [11] (po, 500 mg/kg) it was 117 µg/mL; in data set [16], 165 ± 58 µg/mL. Moreover, the Tmax (commonly the time at which the peak concentration occurs) in data set [11] (po, 20 mg/kg) turned out to be 1 h; in data set [11] (po, 100 mg/kg), 2.8 h; in data set [11] (po, 300 mg/kg), 1 h; in data set [11] (po, 500 mg/kg), 0.83 h. Further, the bioavailability in [11] (po, 20 mg/kg) stood at 104%. The “Found Concentration in plasma, single mice” value in [12] (infected BALB/c mice A, B, C, 300 mg/kg QD, 1 hr post dose, 300 mg/kg) is 229000 ng/mL and 117000 ng/mL and 148000 ng/mL. For the same compound, the “Average Conc. Found in plasma” value in [12] (300 mg/kg QD, 1 hr post dose) was found to be 165000 ng/mL; in data set [12] (300 mg/kg QD, 24 hr post dose), 6100 ng/mL. The “free drug concentration over the MIC” value in data set [12] (predicted from PK in healthy mice, for over 8 h) was “about 2 fold”. In data set [13], the “bioluminescence response in PiniB-LUX assay” value is “none of the DNA gyrase inhibitors, including 22, elicited a strong bioluminescence response”. This compound also registered an MBC in [2] of 15.6 µM (≈ 7.34 µg/mL). For the same compound, the IC50 – broadly, the concentration needed to halve the response being measured – in [14] was 2 µM; in data set [19] (Mycobacterium tuberculosis, RAW264.7, 72 h), 6.3 µM; in data set [19] it was 6 µM. Also, the “MIC against N. gonorrhoeae” value in [15] is 2.0 µM (≈ 0.941 µg/mL). For the same compound, the “time to 3-log kill” value in data set [17] is on record as 7 days. In addition, the MIC90 in data set [3] was found to be 1 µM (≈ 0.47 µg/mL). Moreover, the “concentration of maximal effect in PrecA-LUX assay” value in data set [4] (at 7 days) came out at 0.4 µM. Besides, the “bioluminescence response in PrecA-LUX assay” value in data set [4] (over 7 days) was “strong bioluminescence signal”. Moreover, in data set [18], the “MIC against S. aureus” value is 0.5 µM (≈ 0.235 µg/mL). The “macrophage IC50 higher than the average in vitro broth MIC” value in data set [19] is given as “less than 3 fold”. Also, the “tolerability” value in [21] is reported as “generally well tolerated”. Besides, the solubility (thermodynamic) (in general, the concentration in solution at equilibrium with solid) in [22] is 140 µM (≈ 65.9 µg/mL). Further, the “PrecA-LUX MIC” value in [5] was ~ 3.9 μM. Besides, the “toxicity against the macrophage cell line” value in data set [23] is greater than 100 µM. The “genotoxicity in the MLA” value in data set [24] was “no genotoxicity at the highest concentration tested”. Also, the “antibacterial activity in culture lower than moxifloxacin” value in [7] turned out to be 8 fold. In data set [25], the “MIC against S. pneumoniae” value was 0.25 µM (≈ 0.118 µg/mL).

As for `C[C@@H]1CN2c3c(cc4c(N5C(=O)OC[C@@H]5C)noc4c3F)CC3(C(=O)NC(=O)NC3=O)[C@H]2[C@H](C)O1` [Zoliflodacin, zoliflodacin, reference compound], the “MIC against N. gonorrhoeae lower than that for 22” value in [26] was determined as 8 fold. The MIC in data set [7] (setting [27]) is 6.4 µM (≈ 3.12 µg/mL); in data set [7] (setting [28]) it was 19 µM (≈ 9.26 µg/mL); in data set [7] (setting [29]), 19 µM (≈ 9.26 µg/mL); in [7] (setting [30]), 12 µM (≈ 5.85 µg/mL); in data set [7] (setting [31]), 19 µM (≈ 9.26 µg/mL).
